The values below come from a melting point compilation (Tetko et al.; mined from patent text by program, amines drawn as free bases though some values may be those of a salt).

Where only a bound is given, the exact number is not on record here.

Broadly, the melting point is the temperature, or range, at which the solid turns liquid. `COc1ccc2c(CC3CCN(CCc4c(C)sc5c4CCN(C(C)=O)C5)CC3)noc2c1OC` yielded a melting point of 197 to 200 °C.
The same measure for `CCCCSCC(=O)c1cc2sc(=O)[nH]c2cc1Cl`: 102 to 115 °C; for `CCCc1ccc(S(=O)(=O)NN2CCN(C)CC2)cc1`: 153 to 154 °C; for `N#Cc1ccc2c(c1)COC2(c1ccc(F)cc1)c1ccc(F)cc1`: 105 to 106 °C.
The compound `COc1ccc2c(C(=O)N[C@H](Cc3ccc(C(F)(F)F)cc3)[C@@H](O)c3ccc(F)cc3)cccc2c1` (racemic) gave a melting point of 193 to 194 °C.
The same measure for `O=C(Nc1nc(C(Cl)(Cl)Cl)ns1)C(Cl)(Cl)Cl`: 158 °C; for `O=C1NCCc2c(CCc3ccccc3)[nH]c3cccc1c23`: 207 to 208 °C.
As for `Clc1ccc(NCCCNCC2CCc3ccccc3O2)nn1` (centres undefined), the figure is 108 °C; as for `CCCC(=O)NN=C(C)c1sc(C)nc1C`, 124 °C.
As for `CCCCNc1c(C(=O)OCC)cnc2nn(C)cc12`, the figure is 95 to 97 °C.
The compound `CCCCCc1ccc(C=Cc2cc3sc(C=Cc4ccc(CCCCC)cc4)cc3s2)cc1` had a melting point of 320 °C.
Compound `Oc1cc(CCl)ncn1` showed a melting point of 164 to 166 °C.
`CCOC(=O)c1cnoc1-c1ccc(Cl)c(F)c1` showed a melting point of 76 to 77 °C.
`COc1cc(NC(SC)=C(C#N)S(=O)(=O)c2ccc(Cl)cc2)cc(OC)c1` gave a melting point of 120 to 123 °C.
The same measure for `COc1ccc(S(=O)(=O)CC(C)(C)CS(=O)(=O)c2ccc(OC)cc2)cc1`: 115 to 117 °C.
As for `COc1ccc2ccccc2c1C(Nc1ccccc1C)C(=O)O` (centres undefined), the figure is 188 °C; as for `CC(CC(C)(C)O)Nc1ncc2cc(Oc3ccc(F)cc3F)c(=O)n(C)c2n1` (centres undefined), 159 to 161 °C.
As for `O=C(O)Cc1ccc(Sc2ccc(Cl)cc2)cc1`, the figure is 135 to 140 °C; as for `COc1nc(OC)nc(SC(C(=O)O)C2CCCC2)n1` (centres undefined), 106 to 110 °C.
`Cc1nc(N2CCNC2=O)sc1C(=O)NCc1ccccc1` had a melting point of 226 to 228 °C.
`Cc1ccc(-c2c(CN3C(=O)c4ccccc4C3=O)n(CC(C)C)c(=O)c3ccc(OCc4ccccc4)cc23)cc1` gave a melting point of 158 to 159 °C.
As for `CSc1nc(NN2CCCCC2)c2ncn(C3OC(CCl)C(O)C3O)c2n1` (centres undefined), the figure is 213 to 215 °C; as for `COc1ccccc1N1CCN(CC(O)COc2ccccc2C=C=O)CC1` (centres undefined), 116 to 118 °C.
As for `CNC(=O)CCN1c2ccccc2N2CCc3cccc(c32)C1C` (centres undefined), the figure is 143 to 145 °C.
The same measure for `CC(C)(C)OC(=O)Oc1cc2c(s1)CCN(C(C(=O)C1CC1)c1ccccc1F)C2` (centres undefined): 98 to 99 °C.
`O=C(CC1CCCCC1=O)c1ccc([N+](=O)[O-])cc1` (centres undefined): the melting point was in the range of 61 to 63 °C.
In turn, `O=[N+]([O-])c1ccc(S(=O)(=O)c2cc(Br)nc(Br)c2)cc1` had a melting point of 204 to 206 °C.
The same measure for `CCOC(=O)C1=C(C)NC(=S)N(C(=O)OC)C1c1cccc([N+](=O)[O-])c1` (centres undefined): 150 to 151 °C; for `NC(=O)c1n[nH]c2ccccc12`: 284 to 286 °C; for `O=C(NS(=O)(=O)c1ccccc1)c1cccc(C[C@@H]2COc3ccc(OCc4nc5cc(F)ccc5s4)cc3[C@@H]2O)c1`: 161 to 162 °C.
The compound `Cc1ccc(-c2cc(C(=O)O)c(=O)n(CC(C)C)n2)cc1F` registered a melting point of 159 to 160 °C.
Take `C[C@H](NC(=O)c1cccnc1Oc1cccnc1)c1cccs1`: the melting point lay in the range of 196 to 198 °C.
In the case of `Cc1cc(C)c2nc(NCCCN3CCOCC3)n(Cc3nc(C)ccc3O)c2c1`, the melting point worked out at 228 °C.
The same measure for `CCCCCCc1cc(C(=O)OCC)c(-c2ccccc2)c(-c2ccccc2)c1C(=O)OCC`: 119 to 121 °C; for `Cc1ccc(S(=O)(=O)N2CCCC2c2ccc(Cl)cc2)cc1` (racemic): 121 °C.
`CCC1OC1CC(=O)OC(C#N)c1ccc2ccccc2c1` (centres undefined) yielded a melting point of 60 to 61 °C.
As for `FC(F)(F)Oc1ccc(-c2csc(Nc3cc4ccccc4cn3)n2)cc1`, the figure is 269 to 271 °C; as for `Cc1nc2scc(C)n2c(=O)c1CCN1CCC(c2noc3cc(F)ccc23)CC1`, 231 °C; as for `CC(C)(C)OC(=O)Nc1ccc(I)cc1N`, 127 to 130 °C.
`CSc1ccc(NC(=O)N(O)C2CCCCC2)cc1` showed a melting point of 151 to 153 °C.
The same measure for `N#Cc1ccc(OCC(O)CN2CC3CC(C2)CN(C(=O)Oc2ccc(F)cc2)C3)cc1` (centres undefined): 145 to 146 °C.
`COCCNC(=O)Nc1nc2cc(OS(=O)(=O)c3c(C)cc(C)cc3C)ccc2[nH]1`: the melting point was 140 °C.
The same measure for `O=C(O)c1ccc(Oc2ccc([N+](=O)[O-])cc2)cc1O`: 195 to 197 °C; for `Cc1ccc(-c2cccc(-c3nc(C(C)C)[nH]c3-c3cccc(C)n3)c2)cc1`: 76 to 79 °C.
As for `CC(C)(C)OC(=O)NC(Cc1ccccc1)C(O)CNCC(O)C(Cc1ccccc1)NC(=O)C(O)(CO)C(C)(C)C` (centres undefined), the figure is 84 to 86 °C.
As for `CCOC(=O)C(=CNc1scc(C)c1C(=O)OC)C(=O)OCC`, the figure is 106 °C; as for `CC(C)(C)NC(=O)Nc1nc2nc(N)ncc2cc1-c1c(F)cccc1F`, > 300 °C; as for `CCc1c(C)nc2n(c1=O)C(C)CCC2=NNc1ccccc1` (centres undefined), 135 to 137 °C.
With `Oc1nc2ccc3c(Br)cccc3c2nc1O`, the melting point was > 300 °C.
The compound `Cn1ccc2c(ccc3[nH]cc(CCNCc4ccccc4)c32)c1=O` returned a melting point of 186 to 192 °C.
As for `CC(C)(CO)c1ccc(C=O)c(O)c1`, the figure is 80.4 to 81.9 °C.
As for `CCCc1c(OCCSc2nc3ccc(C(=O)O)cc3[nH]2)ccc(C(C)=O)c1O`, the figure is 108 to 110 °C.
In turn, `CSc1cn(C)c2cc(-c3cccc(Cl)c3)sc2c1=O` gave a melting point of 234 to 236 °C.
With `NC1=NC(c2ccc(OC(F)F)cc2)(c2cccc(-c3cccnc3F)c2)C2=NCC3(CC3)CN12` (centres undefined), the melting point lay within 98 to 108 °C.
As for `CC(C)CN1c2ccccc2C(C)(C)C12C=Nc1c(cc(N3CCc4ccccc43)c3ccccc13)O2` (centres undefined), the melting point lay within 167 to 168 °C.
In turn, `CN1C(=O)CC[C@]2(C)c3ccc(-c4cccc5cnccc45)cc3CC[C@@H]12` returned a melting point of 182 to 184 °C.
The compound `ClCc1conc1-c1ccc(-c2ccccc2)cc1` came in with a melting point of 102 to 103 °C.
Take `CC(C)(C)CCCCCCCCCCCC(=O)O`: the melting point fell in the range of 37 to 39 °C.
The same measure for `CCCCCCNC(=O)NCCCCl`: 48 to 50 °C; for `CC(=O)N=c1[nH]c2ccccc2n1C1CCNCC1`: 164 °C.
Regarding `COc1cc(Nc2cccc(-c3ccccc3)c2)ccc1-c1cnco1`, the melting point lay within 171 to 173 °C.
The same measure for `Cc1nc(-c2ccc(C(F)(F)F)cc2)sc1CN(C)c1ccc(OCC(=O)O)c(C(F)(F)F)c1`: 180 to 181 °C.
The same measure for `Cc1ccc(COc2ncc(F)c(NC(=O)c3ccccc3)n2)cc1`: 93 to 95 °C; for `Nc1nc2cccnc2c2c1nc(CO)n2CC1(O)CCC1`: 244 to 246 °C.
